Assay type in all cases: cell-based
The test system of one assay is LK-2. Briefly: Cancer cell viability, LK-2 (CellTiter-Glo). To be noted: Homo sapiens, LK-2, 72 h, LK-2 cells, 3 days, read-out: Cellular IC50 (μM) LK-2. How it is done:
(§1) Representative Compounds of the Disclosure were tested in A549 (Vendor: ATCC; Cat #CCL-185; Description: lung, carcinoma) and/or LK-2 (Vendor: Riken; Cat #RCB1970; Description: lung, squamous cell carcinoma) cellular viability assays according to the following general protocol. • 1. Observed the cells under microscope. • 2. Aspirated the media and added 5 mL trypsin and incubate for 3 mins. • 3. Added 10 mL fresh media and harvested all the cells in to 15 mL tubes. • 4. Centrifuged the cells at 1000 rpm for 5 mins. • 5. Re-suspended the cells with 11 mL media and took 1 mL to determine the cell number and viability. • 6. Prepared cells suspension at 20 K/mL (A549) or 35 K/mL (LK-2) • 7. Seeded the cells into 96-well plate and incubated for overnight. • 8. Added compounds into each well with a HPD300 machine (nine three-fold dilutions typically starting at 30 µM final concentration) and incubated for 3 days. • 9. After 3 days, took out the plates from the incubator and observed the cells under microscope. • 10. Passed a film at the bottom of the plates. • 11. Equilibrated the plate and its contents at room temperature for approximately 30 minutes. • 12. Thawed the CellTiter-Glo® Buffer and equilibrated to room temperature prior to use. • 13. Equilibrated the lyophilized CellTiter-Glo® Substrate to room temperature prior to use. • 14. Transferred 100 ml of CellTiter-Glo® Buffer into the amber bottle containing CellTiter-Glo® Substrate to reconstituted the lyophilized enzyme/substrate mixture. • 15. Mixed by gently vortexing, swirling or inverting the contents to obtain a homogeneous solution. • 16. Added 100 μL CellTiter-Glo® Reagent into each well • 17. Mixed contents for 15 minutes on an orbital shaker to induce cell lysis. • 18. Recorded luminescence with EnSpire machine. • 19. Passed the raw data into the file and analyzed the data with XLfit software.

The test system of another assay is A549. Briefly: Cancer cell viability, A549 (CellTiter-Glo). The note with it: Homo sapiens, 72 h, A549 cells, 3 days, read-out: Cellular IC50 (μM) A549. How it is done: as §1, with “Added compounds into each well with a HPD300 machine (nine three-fold dilutions typically starting at 30 µM final concentration) and incubated for 3 days. • 9.” left out
In general terms: Cellular ATP, detected with luciferase, serves as a proxy for viable cell number.

The target in a further assay is T1, Nrf2 (Homo sapiens, UniProt Q16236).
T1 sequence (Q16236 1-605): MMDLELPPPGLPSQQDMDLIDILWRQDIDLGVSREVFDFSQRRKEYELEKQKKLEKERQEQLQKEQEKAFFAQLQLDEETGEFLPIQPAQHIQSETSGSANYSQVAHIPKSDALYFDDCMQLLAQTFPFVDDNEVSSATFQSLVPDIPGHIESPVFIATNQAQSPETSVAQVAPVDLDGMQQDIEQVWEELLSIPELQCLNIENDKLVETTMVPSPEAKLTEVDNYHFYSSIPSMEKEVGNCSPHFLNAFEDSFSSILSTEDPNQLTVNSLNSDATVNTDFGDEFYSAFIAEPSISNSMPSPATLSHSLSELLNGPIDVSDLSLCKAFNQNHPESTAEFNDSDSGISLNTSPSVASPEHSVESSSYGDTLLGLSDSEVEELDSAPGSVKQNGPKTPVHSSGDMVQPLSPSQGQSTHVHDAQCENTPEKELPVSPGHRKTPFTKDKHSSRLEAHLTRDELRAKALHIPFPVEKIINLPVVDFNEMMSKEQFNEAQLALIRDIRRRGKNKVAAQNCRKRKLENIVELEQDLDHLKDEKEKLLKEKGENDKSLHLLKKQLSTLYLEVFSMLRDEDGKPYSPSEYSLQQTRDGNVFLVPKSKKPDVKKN
Kind of assay: Nrf2 degradation in A549 HiBiT-Nrf2 cells, Nano-Glo HiBiT lytic detection (HiBiT readout). More on the design: host or cells: A549 HiBiT-Nrf2 cells (engineered line bought from Promega). How it is done:
A549 HiBiT-Nrf2 cells (Promega, Cat. No. CS3023219) were seeded into 384-well plates at cell density of 5,000 cells/well in 40 μL of cell culture medium (Ham's F-12 Nutrient Mix supplemented with 10% FBS and 1% antibiotic-antimycotic).
The next day, cells were treated with representative Compounds of the Disclosure and incubated for 6 h and 20 h at 37° C., 5% CO2. Staurosporine was used as a control.
At the end of incubation Nrf2 degradation (HiBiT readout) and cell viability (CellTiter-Glo readout) were determined. For HiBiT readout, Nano-Glo HiBiT Reagent mix (Promega, Cat. No. N3050) was added to wells, plates were incubated 2 min on an orbital shaker and incubated at room temperature in the dark for additional 30 minutes. At the end of incubation luminescence was measured using ultrasensitive luminescence mode (Envision, Perkin Elmer).

One may read the IC50 as the point on the concentration scale where inhibition reaches its midpoint. A word on the DC50: it is the concentration at which degradation of the target reaches its halfway point.

The structures appear in SMILES notation. Where two headings read alike, the source gives them in different places.

Regarding `Cc1ccccc1C(=O)N1CCc2cc(-c3nc(NC(=O)Cc4cccc(OCCCNc5cccc6c5C(=O)N(C5CCC(=O)NC5=O)C6=O)c4)sc3C)ccc21` (stereo not drawn) [Cpd. No. 6, 2-(3-(3-((2-(2,6-dioxopiperidin-3-yl)-1,3-dioxoisoindolin-4-yl)amino)propoxy)phenyl)-N-(5-methyl-4-(1-(2-methylbenzoyl)indolin-5-yl)thiazol-2-yl)acetamide], the IC50 with LK-2 and with A549 was more than 30 µM each time.
Turning to `Cc1ccccc1C(=O)N1CCc2cc(-c3nc(NC(=O)Cc4cccc(OCCOCCOc5ccc6c(c5)C(=O)N(C5CCC(=O)NC5=O)C6=O)c4)sc3C)ccc21` (stereo not drawn) [Cpd. No. 18, 2-(3-(2-(2-((2-(2,6-dioxopiperidin-3-yl)-1,3-dioxoisoindolin-5-yl)oxy)ethoxy)ethoxy)phenyl)-N-(5-methyl-4-(1-(2-methylbenzoyl)indolin-5-yl)thiazol-2-yl)acetamide], the DC50 is 300 to 3000 nM on Nrf2 (6 h, read-out: DC50 (nM) at 6 h) and more than 3000 nM at Nrf2 (20 h, read-out: DC50 (nM) at 20 h). Further, the IC50 with LK-2 came to 0.04 µM; in the assay with A549, 0.1 µM.
Consider `Cc1ccccc1C(=O)N1CCc2cc(-c3nc(NC(=O)Cc4cccc(OCCOCCOCCOc5ccc6c(c5)C(=O)N(C5CCC(=O)NC5=O)C6=O)c4)sc3C)ccc21` (stereo not drawn) [Cpd. No. 19, 2-(3-(2-(2-(2-((2-(2,6-dioxopiperidin-3-yl)-1,3-dioxoisoindolin-5-yl)oxy)ethoxy)ethoxy)ethoxy)phenyl)-N-(5-methyl-4-(1-(2-methylbenzoyl)indolin-5-yl)thiazol-2-yl)acetamide], for which the IC50 in the assay on LK-2 worked out at 2.5 µM; in the assay with A549, 11 µM.
For `Cc1ccccc1C(=O)N1CCc2cc(-c3nc(NC(=O)Cc4cccc(OCCOCCOCCNc5ccc6c(c5)C(=O)N(C5CCC(=O)NC5=O)C6=O)c4)sc3C)ccc21` (stereo not drawn) [Cpd. No. 21, 2-(3-(2-(2-(2-((2-(2,6-dioxopiperidin-3-yl)-1,3-dioxoisoindolin-5-yl)amino)ethoxy)ethoxy)ethoxy)phenyl)-N-(5-methyl-4-(1-(2-methylbenzoyl)indolin-5-yl)thiazol-2-yl)acetamide], the IC50 in the assay with LK-2 and in the assay with A549 was more than 30 µM throughout.
In the case of `Cc1sc(NC(=O)Cc2cccc(OCCOCCNc3ccc4c(c3)C(=O)N(C3CCC(=O)NC3=O)C4=O)c2)nc1-c1ccc2c(c1)CCN2C(=O)C1CC1` (stereo not drawn) [Cpd. No. 22, N-(4-(1-(cyclopropanecarbonyl)indolin-5-yl)-5-methylthiazol-2-yl)-2-(3-(2-(2-((2-(2,6-dioxopiperidin-3-yl)-1,3-dioxoisoindolin-5-yl)amino)ethoxy)ethoxy)phenyl) acetamide], the IC50 in the assay with LK-2 is 0.06 µM; with A549, 0.3 µM.
The matching figures for `Cc1sc(NC(=O)Cc2cccc(OCCOCCNc3ccc4c(c3)C(=O)N(C3CCC(=O)NC3=O)C4=O)c2)nc1-c1ccc2c(c1)CCN2C(=O)c1cncn1C` (stereo not drawn) [Cpd. No. 23, 2-(3-(2-(2-((2-(2,6-dioxopiperidin-3-yl)-1,3-dioxoisoindolin-5-yl)amino)ethoxy)ethoxy)phenyl)-N-(5-methyl-4-(1-(1-methyl-1H-imidazole-5-carbonyl)indolin-5-yl)thiazol-2-yl)acetamide]: 0.02 µM and 0.09 µM.
In the case of `Cc1ccccc1C(=O)N1CCc2cc(-c3nc(NC(=O)Cc4cccc(OCCCCN5CCN(c6ccc7c(c6)C(=O)N(C6CCC(=O)NC6=O)C7=O)CC5)c4)sc3C)ccc21` (stereo not drawn) [Cpd. No. 26, 2-(3-(4-(4-(2-(2,6-dioxopiperidin-3-yl)-1,3-dioxoisoindolin-5-yl)piperazin-1-yl)butoxy)phenyl)-N-(5-methyl-4-(1-(2-methylbenzoyl)indolin-5-yl)thiazol-2-yl)acetamide], the IC50 in the assay on LK-2 was 0.8 µM; with A549, more than 30 µM.
For `Cc1ccccc1C(=O)N1CCc2cc(-c3nc(NC(=O)Cc4cccc(OCCCCN5CCN(c6cccc7c6C(=O)N(C6CCC(=O)NC6=O)C7=O)CC5)c4)sc3C)ccc21` (stereo not drawn) [Cpd. No. 33, 2-(3-(4-(4-(2-(2,6-dioxopiperidin-3-yl)-1,3-dioxoisoindolin-4-yl)piperazin-1-yl)butoxy)phenyl)-N-(5-methyl-4-(1-(2-methylbenzoyl)indolin-5-yl)thiazol-2-yl)acetamide], the IC50 in the assay on LK-2 and in the assay with A549 was more than 30 µM in each case.
Regarding `Cc1sc(C(=O)NCc2cccc(OCCOCCNc3ccc4c(c3)C(=O)N(C3CCC(=O)NC3=O)C4=O)c2)nc1-c1ccc2c(c1)CCN2C(=O)C1CC1` (stereo not drawn) [Cpd. No. 38, 4-(1-(cyclopropanecarbonyl)indolin-5-yl)-N-(3-(2-(2-((2-(2,6-dioxopiperidin-3-yl)-1,3-dioxoisoindolin-5-yl)amino)ethoxy)ethoxy)benzyl)-5-methylthiazole-2-carboxamide], the IC50 with LK-2 was found to be 0.04 µM; in the assay with A549, 0.2 µM.
Take `Cc1sc(C(=O)Nc2cccc(OCCOCCNc3ccc4c(c3)C(=O)N(C3CCC(=O)NC3=O)C4=O)c2)nc1-c1ccc2c(c1)CCN2C(=O)C1CC1` (stereo not drawn) [Cpd. No. 39, 4-(1-(cyclopropanecarbonyl)indolin-5-yl)-N-(3-(2-(2-((2-(2,6-dioxopiperidin-3-yl)-1,3-dioxoisoindolin-5-yl)amino)ethoxy)ethoxy)phenyl)-5-methylthiazole-2-carboxamide]: the IC50 with LK-2 and in the assay with A549 was more than 30 µM in each case.
As for `Cc1ccccc1C(=O)N1CCc2cc(-c3nc(NC(=O)Cc4cccc(OCCCN5CCN(c6ccc7c(c6)C(=O)N(C6CCC(=O)NC6=O)C7=O)CC5)c4)sc3C)ccc21` (stereo not drawn) [compound 25, 2-(3-(3-(4-(2-(2,6-dioxopiperidin-3-yl)-1,3-dioxoisoindolin-5-yl)piperazin-1-yl)propoxy)phenyl)-N-(5-methyl-4-(1-(2-methylbenzoyl)indolin-5-yl)thiazol-2-yl)acetamide], the IC50 in the assay with LK-2 and with A549 was more than 30 µM in each case.

(Values after patent US20260055097A9, “NRF2 PROTEIN DEGRADERS” (Ganymede Oncology, Inc., priority 2022, published 2026).)
